Counter-ions that a name gives are not always drawn.
Target: Arachidonate 5-lipoxygenase (Rattus norvegicus)
Experiment: Evaluated for inhibitory activity against RBL-1 cell 5-lipoxygenase in rat

Row | SMILES | IC50 [nM]
1 | Cc1cc(OCCCCN2CCN(C(c3ccccc3)c3ccccc3)CC2)c(C)c(C)c1O [4-[4-(4-Benzhydryl-piperazin-1-yl)-butoxy]-2,3,6-trimethyl-phenol; hydrochloride] | 358
2 | Cc1cc(OCCCCCCCCN2CCN(C(c3ccccc3)c3ccccc3)CC2)c(C)c(C)c1O [4-[8-(4-Benzhydryl-piperazin-1-yl)-octyloxy]-2,3,6-trimethyl-phenol; hydrochloride] | 1060
3 | Cc1cc(OCCN2CCN(C(c3ccccc3)c3ccccc3)CC2)c(C)c(C)c1O [4-[2-(4-Benzhydryl-piperazin-1-yl)-ethoxy]-2,3,6-trimethyl-phenol; hydrochloride] | 820
4 | Cc1cc(OCCCN2CCN(C(c3ccccc3)c3ccccc3)CC2)c(C)c(C)c1O [4-[3-(4-Benzhydryl-piperazin-1-yl)-propoxy]-2,3,6-trimethyl-phenol; hydrochloride] | 426

Reference: BindingDB's records for doi:10.1016/s0960-894x(98)00676-3 (Tokushima Bunri University, 1999)
